The source of these data is patent publication US20070009444A1, “Method for preparing powder exhibiting low susceptibility to electrification” (priority 2003, published 2007).

What all share (type): physicochemical
A short description of data set [1]: Measurement of bulk density (3 cc vessel, tapped three times). The source says: As an index for charge suppression of the obtained powder, bulk. density of the powder may be examined rather than measuring surface potential of the powder. […] When the bulk density is not less than 0.25 g/cc, preferably 0.28 g/cc, suction by a machine and transfer from a filling machine to a filling vessel may be conducted favorably, and a certain operability must be secured. The bulk density is a value determined in the manner as described below. First, 3 cc of sample to be measured is put into a vessel, and then the vessel is lightly tapped several to 10 times, preferably about 3 times. When the bulk is reduced, powder is supplemented, and this operation is repeated. At the time when the bulk no longer changes, a sample weight per 1 cc is determined. The bulk density of lowly-charged powder determined in the method of the present invention is 1.5 times or more, preferably 1.6 times or more, and further preferably 1.8 times or more the “bulk density of highly-charged compound”, “bulk density of powder obtained by drying a liquid composition containing a highly-charged compound and an additive other than PEG” or “bulk density of powder obtained by drying a liquid composition containing a pharmaceutically active compound”.
The bulk density of the acetaminophen powder containing PEG4000 (PEG adding ratio 0.03) obtained in Example 1 and the Compound (I-1) powder containing PEG4000 obtained in Example 2 were measured.
The powder was added to a vessel to reach the scale of 3 cc in a dry box and tapped three times. When the bulk is reduced, powder is added to the vessel to reach the scale of 3 cc and the same operation was repeated.
When the bulk no longer changed at 3 cc, addition of the powder was stopped and the bulk density (g/cc) was measured at that time.
Bulk densities of the acetaminophen powder (without adding PEG) and the Compound (I-1) powder (without adding PEG) were measured by the same method as controls.

Data set [2] in a line: Observation of spray dried powder (transit performance, coloring, operability). Here is the method: Acetaminophen and PEG4000 were mixed at the following ratio: acetaminophen-PEG4000=2.8 g-701 mg (Mixed ratio 4:1, PEG adding ratio 0.25 (weight of PEG (mg) relative to 1 mg of pharmaceutical active compound)), acetaminophen-PEG4000=2.8 g-351 mg (Mixed ratio 8:1, PEG adding ratio 0.125), acetaminophen-PEG4000=2.8 g-176 mg (Mixed ratio 16:1, PEG adding ratio 0.06), and acetaminophen-PEG4000=14 g-437 mg (Mixed ratio 32:1, PEG adding ratio 0.03). The final concentration of acetaminophen was adjusted to 1.4% by weight by adding suitable amount of water and the solution was spray dried under the conditions mentioned below.
FIG. 1 is a photograph of the acetaminophen powder (PEG adding ratio 0.03) and FIG. 2 is a photograph of the acetaminophen powder(without adding PEG). • Spray drying condition • Spray dryer: Spray dryer SD-1000 (Tokyo Rikakikai Co., Ltd.) • Speed of pump: scale 30 (about 6 mL/min) • IN-let temperature: 170° C. • Out-let temperature: 95 to 100° C. • Drying air volume: 0.60 m^3/min • Spray drying pressure: 70 kPa
Compound (I-1) powder was manufactured by a similar manner to Example 2 except that PEG400 (111 mg) (PEG adding ratio 0.37) was used instead of PEG4000 and the final concentration of Compound (I-1) in the solution was adjusted to 19% by weight. […]

The nature of data set [3]: Measurement of charge amount (Espartoanalyzer, sample mixed with iron powder 1:9, 500 V). As to conditions: for Average of charge: average of two measurements. The source says:
In the present specification, the term “lowly-charged powder” means powder in which negative charge of surface potential is reduced (powder unsusceptible to negative charge) and encompasses positively charged powder. Concretely, it means powder having an average electric charge, measured with a particle charge distribution measuring device (for example, particle charge distribution measuring device using Laser Doppler speed meter), of not less than −2 q/m (namely, electric charge is negative and its absolute value is not more than 2, or electric charge is zero or positive value), preferably of not less than −1 q/m. The average electric charge is preferably not more than +5, more preferably not more than +3, and most preferably not more than +1. Measurement of electric charge may be conducted according to a manual of the device, and a condition and a measuring device are not particularly limited. For instance, after mixing a compound to be measured and iron powder in a ratio of about 1:9, about 1 g of mixture is collected. […]
400 mg of the acetaminophen powder containing PEG4000 (Acetaminophen:PEG=32:1, PEG adding ratio 0.03) obtained in Example 1 and 3600 mg of iron powder (TEFV-200/300 (registered trademark, Powdertech) as a carrier were filled into a glass vessel, and the mixture was mixed by hands for ten seconds. About 1 g of thus-obtained sample (true density of the particles: 1.20 g/cm^3) were collected and the charge amount was measured using Espartoanalyzer (Hosokawa Micron company). […]
Charge amount of the acetaminophen powder (without adding PEG) was measured by the same method as described above as a control (numbers of particles: 500).
Charge amount of each sample was measured twice and the average of the results are shown below.
Charge amount of the following samples were measured by the same method as Experiment 1. • i) 300 mg of Compound (I-1) […]

Data set [4] is described as follows: Particle diameter by dry powder tester (SK Laser micron sizer LMS-30). As to conditions: no PEG, with D-mannitol and NaOH, spray dried. Here is the method: The method of measuring “average particle size” used herein is not particularly limited, and measurement may be conducted in accordance with a manual of the particle size meter to be used. For example, about 20 to 30 mg of powder to be measured for its diameter is taken, and placed in the particle size meter for conducting measurement.
(§1) 300 mg of Compound (I-l) and 150 mg of D-mannitol were mixed with suitable amount of sodium hydroxide. The solutions having various concentration (pH 9.5 to 9.75) were prepared. Thus-obtained solutions were spray dried under the same conditions as Example 1. The dissolution time of the obtained powder was measured by the same method as the above-mentioned Experiment 3. The particle diameter was measured under the following conditions. • Measuring condition of dry powder tester • Dry powder tester: SK Laser micron sizer LMS-30 (SEISHIN ENTERPRISE Co., Ltd.) • Carrier fluid: compressed air […] • Sample: about 20 to 30 mg

Data set [5] in a line: Measurement of dissolution time (powder in 10 ml distilled water for injection, vial shaken). On the procedure:
The dissolving time is determined by shaking a vessel containing 300 mg of sample to be measured and 10 mL of water. In the case of pharmaceuticals, the sample to be measured should contain 300 mg of pharmaceutically active compound, and may contain a pharmaceutical additive. The shaking manner and time are not particularly limited. Concretely, measurement may be conducted according to the method described in Test example 3 described later.
The Compound (I-1) powder containing PEG (about 300 mg) which was obtained in Example 2 or 3 was filled in a vial (the capacity to the shoulder is 20 ml). After 10 ml of distilled water for injection was added to the vial, the vial was shaken 20 times (arm length: about 20 centimeters, the amplitude: […] and shaking speed: 20 times/ten seconds), and the dissolution time was measured.
as §1

For the compound `CC(=O)Nc1ccc(O)cc1` [Acetaminophen, acetaminophen], the Bulk density in data set [1] (solution 1.4% by weight, PEG4000, PEG adding ratio 0.03, spray dried) turned out to be 0.659 g/cc; in data set [1] (solution 1.4% by weight, without adding PEG, spray dried), 0.398 g/cc. For the same compound, the Coloring of powder result in data set [2] (spray dried solution containing only acetaminophen, without adding PEG (control)) is “a little coloring”; in data set [2] (spray dried with PEG4000, PEG adding ratio 0.25, 0.125, 0.06, 0.03 (all samples)) it was “non-coloring”. For the same compound, the Average of charge is on record as −1.43 q/m in data set [3] (acetaminophen powder spray dried with PEG4000, PEG adding ratio 0.03) and −12.86 q/m in data set [3] (acetaminophen powder without adding PEG, ratio 0).
Regarding `CC1(C)CC[C@]2(C(=O)[O-])CC[C@]3(COC(=O)/C=C/c4cc(O)ccc4NC(=O)/C=C/C(=O)[O-])C(=CC[C@@H]4[C@@]5(C)CCC(=O)C(C)(C)[C@@H]5CC[C@]43C)[C@@H]2C1.[Na+].[Na+]` [Compound (I-1)], the Bulk density in data set [1] (solution 18% by weight, PEG4000, PEG adding ratio 0.37, spray dried) was 0.395 g/cc; in data set [1] (solution 18% by weight, without adding PEG, spray dried) it was 0.206 g/cc. For the same compound, the Particle diameter turned out to be 8.9 μm in data set [4] (solution 5% by weight (pH 9.5)), 10.1 μm in data set [4] (solution 10% by weight) and 11.6 μm in data set [4] (solution 19% by weight (pH 9.75)). Besides, the Electric charge in data set [3] (Experiment 2; i) non-additive, 3000 particles; ii) PEG4000 + D-mannitol, PEG adding ratio 0.4, 505 particles) is listed as −2.57 q/m. Besides, the Dissolution time in data set [5] (no PEG, with D-mannitol and NaOH, solution 5% by weight (pH 9.5), spray dried) was 40 s; in data set [5] (no PEG, with D-mannitol and NaOH, solution 10% by weight, spray dried), 10 s; in data set [5] (no PEG, with D-mannitol and NaOH, solution 19% by weight (pH 9.75), spray dried) it was “under 20 second”; in data set [5] (solution before drying 5% by weight, PEG4000, PEG adding ratio 0.37), 10 s; in data set [5] (solution before drying 5% by weight, non-additive, PEG adding ratio 0), 40 s; in data set [5] (solution before drying 19% by weight, PEG400, PEG adding ratio 0.37), 10 s.
